Assay results taken from patent publication US20210392892A1, “COMPOSITIONS COMPRISING PYRIDINE CARBOXYLATE HERBICIDES AND ACETYL COA CARBOXYLASE (ACCASE) INHIBITOR HERBICIDES” (Corteva Agriscience LLC, priority 2018, published 2021).
“And” between values parts separate entries of the source, which are not always exact repeats. Equal entries are not always repeated.

Legend:
Assay in all cases: Greenhouse postemergence herbicidal effect (visual injury)
Type in all cases: in vivo
[1] = tested on: ZEAMX, Zea mays (maize); settings: with cloquintocet-mexyl
Source text: (§1) Seeds of the desired test plant species were planted in a 90:10% v/v (volume/volume) mixture of PRO-MIX® BX (Premier Tech Horticulture, Quakertown, Pa., USA) and PROFILE® GREENS GRADE™ (Profile Products LLC, Buffalo Grove, Ill., USA) planting mixture, which typically has a pH of 5.2 to 6.2 and an organic matter content of at least 50 percent, in plastic pots with a surface area of 103.2 square centimeters (cm^2). In some aspects, to help ensure good germination and healthy plants, a fungicide treatment and/or other chemical or physical treatment was applied. The plants were grown for 7-36 days (d) in a greenhouse with an approximate 14-hour (h) photoperiod which was maintained at about 23° C. during the day and 22° C. during the night. Nutrients and water were added on a regular basis and supplemental lighting was provided with overhead metal halide 1000-Watt lamps as necessary. The plants were employed for testing when they reached the second or third true leaf stage.
(§2) Emulsifiable concentrates of each of each pyridine carboxylate herbicide (Compound A or Compound B) were prepared at 100 grams acid equivalent per liter (g ae/L). The emulsifiable concentrates also included a safener, cloquintocet-mexyl, at 120 grams active ingredient per liter (g ai/L), unless otherwise noted below. An aliquot of each emulsifiable concentrate was placed in a 25 mL glass vial and diluted with an aqueous mixture of 1.25% (v/v) ACTIROB® B esterified rapeseed oil (Bayer Crop Science, Research Triangle Park, N.C., USA) or MSO® Concentrate with LECI-TECH® methylated soybean oil (Loveland Products, Loveland, Colo., USA) to obtain concentrated stock solutions at the highest application rate for each herbicide, based upon a 12 milliliter (mL) application volume at a rate of 187 liters per hectare (L/ha). The concentrated stock solutions were further diluted with an aqueous mixture of 1.25% v/v ACTIROB® B or MSO® Concentrate with LECI-TECH® to obtain stock solutions at reduced application rates for each herbicide. Spray solutions of the herbicide combinations (Compound A or Compound B plus ACCase inhibitor herbicide) were prepared by adding weighed amounts or aliquots of the ACCase inhibitor herbicide to the stock solutions of Compound A or Compound B to form 12-mL spray solutions in two-way combinations.
(§3) The spray solutions were applied to the plant material with an overhead Mandel track sprayer equipped with 8002E nozzles calibrated to deliver 187 L/ha over an application area of 0.503 square meters (m^2) at a spray height of 18 inches (43 centimeters (cm)) above the average plant canopy. Control plants were sprayed in the same manner with the solvent blank. All pyridine carboxylate herbicide (component a) application rates are given as “g ae/ha” and all ACCase inhibitor herbicide (component b) application rates are given as “g ai/ha.”
(§4) The treated plants and control plants were placed in a greenhouse as described above and watered by sub-irrigation to prevent wash-off of the test compounds. After 20-22 d, the condition of the test plants as compared with that of the control plants was determined visually and scored on a scale of 0 to 100 percent where 0 corresponds to no injury and 100 corresponds to complete kill.

[2] = tested on: KCHSC, Kochia scoparia (kochia)
Source text: as §1, §2, §3, §4

[3] = tested on: STEME, Stellaria media (chickweed)
Source text: as §1, §2, §3, §4

[4] = tested on: LEFCH, Leptochloa chinensis (Chinese sprangletop)
Source text: as §1, §2, §3, §4

[5] = tested on: BRSNN, Brassica napus (spring rape); settings: with cloquintocet-mexyl
Source text: as §1, §2, §3, §4

[6] = tested on: LOLMG, Lolium multiflorum subsp. gaudini (annual ryegrass); settings: with cloquintocet-mexyl
Source text: as §1, §2, §3, §4

[7] = tested on: BRAPP, Brachiaria platyphylla (broadleaf signalgrass); settings: with cloquintocet-mexyl
Source text: as §1, §2, §3, §4

[8] = tested on: GLXMA, Glycine max (soybean)
Source text: as §1, §2, §3, §4

[9] = tested on: CYPDI, Cyperus difformis (small-flower flatsedge); settings: with cloquintocet-mexyl
Source text: as §1, §2, §3, §4

[10] = tested on: CIRAR, Cirsium arvense (Canadian thistle)
Source text: as §1, §2, §3, §4

[11] = tested on: VIOTR, Viola tricolor (wild pansy)
Source text: as §1, §2, §3, §4

[12] = tested on: SETFA, Setaria faberi (giant foxtail)
Source text: as §1, §2, §3, §4

[13] = tested on: ORYSA, Oryza sativa (common rice); settings: with cloquintocet-mexyl
Source text: as §1, §2, §3, §4

[14] = tested on: ABUTH, Abutilon theophrasti (velvetleaf)
Source text: as §1, §2, §3, §4

[15] = tested on: SORVU, Sorghum vulgare (grain sorghum)
Source text: as §1, §2, §3, §4

[16] = 7.5 g ae/ha, with cloquintocet-mexyl
[17] = 7.5 g ae/ha, without cloquintocet-mexyl
[18] = 10 g ae/ha, with cloquintocet-mexyl
[19] = 10 g ae/ha, without cloquintocet-mexyl

SMILES: N#CCOC(=O)c1nc(-c2ccc3cc[nH]c3c2F)c(F)c(N)c1Cl [Compound A, cyanomethyl 4-amino-3-chloro-5-fluoro-6-(7-fluoro-1H-indol-6-yl)pyridine-2-carboxylate]
- % visual injury, Obs ([1]; 7.5 g ae/ha): 0%
- % visual injury, Obs ([1]; 10 g ae/ha): 0%
- % visual injury, Obs [2, 16]: 63%
- % visual injury, Obs [2, 17]: 73%
- % visual injury, Obs [2, 18]: 70%
- % visual injury, Obs [2, 19]: 88%
- % visual injury, Obs ([2]; KCHSC, Compound A 7.5 g/ha, Fluazifop 0 g/ha): 73%
- % visual injury, Obs ([2]; KCHSC, Compound A 10 g/ha, Fluazifop 0 g/ha): 88%
- % visual injury, Obs [3, 16]: 90%
- % visual injury, Obs [3, 17]: 73%
- % visual injury, Obs [3, 18]: 85%
- % visual injury, Obs [3, 19]: 88%
- % visual injury, Obs ([3]; STEME, Compound A 7.5 g/ha, Fluazifop 0 g/ha): 73%
- % visual injury, Obs ([3]; STEME, Compound A 10 g/ha, Fluazifop 0 g/ha): 88%
- % visual injury, Obs [4, 17]: 0%
- % visual injury, Obs [4, 19]: 0% and 5%
- % visual injury, Obs ([4]; LEFCH, Compound A 7.5 g/ha, Fluazifop 0 g/ha): 0%
- % visual injury, Obs ([4]; LEFCH, Compound A 7.5 g/ha, Haloxyfop-R-methyl 0 g/ha): 0%
- % visual injury, Obs ([4]; LEFCH, Compound A 7.5 g/ha, Quizalofop-P-ethyl 0 g/ha): 0%
- % visual injury, Obs ([4]; LEFCH, Compound A 10 g/ha, Fluazifop 0 g/ha): 0%
- % visual injury, Obs ([4]; LEFCH, Compound A 10 g/ha, Haloxyfop-R-methyl 0 g/ha): 5%
- % visual injury, Obs ([4]; LEFCH, Compound A 10 g/ha, Quizalofop-P-ethyl 0 g/ha): 5%
- % visual injury, Obs ([5]; 7.5 g ae/ha): 23%
- % visual injury, Obs ([5]; 10 g ae/ha): 45%
- % visual injury, Obs ([6]; 7.5 g ae/ha): 0%
- % visual injury, Obs ([6]; 10 g ae/ha): 3%
- % visual injury, Obs ([7]; 7.5 g ae/ha): 43%
- % visual injury, Obs ([7]; 10 g ae/ha): 68%
- % visual injury, Obs [8, 17]: 85%
- % visual injury, Obs [8, 19]: 85%
- % visual injury, Obs ([8]; GLXMA, Compound A 7.5 g/ha, Fluazifop 0 g/ha): 85%
- % visual injury, Obs ([8]; GLXMA, Compound A 10 g/ha, Fluazifop 0 g/ha): 85%
- % visual injury, Obs ([9]; 7.5 g ae/ha): 60%
- % visual injury, Obs ([9]; 10 g ae/ha): 72%
- % visual injury, Obs [10, 17]: 40%
- % visual injury, Obs [10, 19]: 28%
- % visual injury, Obs ([10]; CIRAR, Compound A 7.5 g/ha, Fluazifop 0 g/ha): 40%
- % visual injury, Obs ([10]; CIRAR, Compound A 10 g/ha, Fluazifop 0 g/ha): 28%
- % visual injury, Obs [11, 17]: 8%
- % visual injury, Obs [11, 19]: 15%
- % visual injury, Obs ([11]; VIOTR, Compound A 7.5 g/ha, Fluazifop 0 g/ha): 8%
- % visual injury, Obs ([11]; VIOTR, Compound A 10 g/ha, Fluazifop 0 g/ha): 15%
- % visual injury, Obs [12, 16]: 0%
- % visual injury, Obs [12, 18]: 0%
- % visual injury, Obs ([12]; SETFA, Compound A 7.5 g/ha, Fluazifop 0 g/ha): 0%
- % visual injury, Obs ([12]; SETFA, Compound A 7.5 g/ha, Haloxyfop-R-methyl 0 g/ha): 63%
- % visual injury, Obs ([12]; SETFA, Compound A 7.5 g/ha, Quizalofop-P-ethyl 0 g/ha): 63%
- % visual injury, Obs ([12]; SETFA, Compound A 10 g/ha, Fluazifop 0 g/ha): 0%
- % visual injury, Obs ([12]; SETFA, Compound A 10 g/ha, Haloxyfop-R-methyl 0 g/ha): 60%
- % visual injury, Obs ([12]; SETFA, Compound A 10 g/ha, Quizalofop-P-ethyl 0 g/ha): 60%
- % visual injury, Obs ([13]; 7.5 g ae/ha): 0%
- % visual injury, Obs ([13]; 10 g ae/ha): 0%
- % visual injury, Obs [14, 17]: 70%
- % visual injury, Obs [14, 19]: 75%
- % visual injury, Obs ([14]; ABUTH, Compound A 7.5 g/ha, Fluazifop 0 g/ha): 70%
- % visual injury, Obs ([14]; ABUTH, Compound A 10 g/ha, Fluazifop 0 g/ha): 75%
- % visual injury, Obs [15, 17]: 0%
- % visual injury, Obs [15, 19]: 0%
- % visual injury, Obs ([15]; SORVU, Compound A 7.5 g/ha, Fluazifop 0 g/ha): 0%
- % visual injury, Obs ([15]; SORVU, Compound A 10 g/ha, Fluazifop 0 g/ha): 0%
